Data taken from ChEMBL document CHEMBL4229568, “Discovery of natural flavonoids as activators of Nrf2-mediated defense system: Structure-activity relationship and inhibition of intracellular oxidative insults” (Bioorg Med Chem, 2018).
Active and inactive are the calls of the source. The rule behind the calls is not given here.

The compounds below were run against T1, Nuclear factor erythroid 2-related factor 2 (Mus musculus) (UniProt Q60795) (assay: Activation of Nrf2 in mouse Heap1c1c7 cells assessed as induction of NAD(P)H:quinone reductase activity at 100 uM relative to control).
T1 sequence (whole entry): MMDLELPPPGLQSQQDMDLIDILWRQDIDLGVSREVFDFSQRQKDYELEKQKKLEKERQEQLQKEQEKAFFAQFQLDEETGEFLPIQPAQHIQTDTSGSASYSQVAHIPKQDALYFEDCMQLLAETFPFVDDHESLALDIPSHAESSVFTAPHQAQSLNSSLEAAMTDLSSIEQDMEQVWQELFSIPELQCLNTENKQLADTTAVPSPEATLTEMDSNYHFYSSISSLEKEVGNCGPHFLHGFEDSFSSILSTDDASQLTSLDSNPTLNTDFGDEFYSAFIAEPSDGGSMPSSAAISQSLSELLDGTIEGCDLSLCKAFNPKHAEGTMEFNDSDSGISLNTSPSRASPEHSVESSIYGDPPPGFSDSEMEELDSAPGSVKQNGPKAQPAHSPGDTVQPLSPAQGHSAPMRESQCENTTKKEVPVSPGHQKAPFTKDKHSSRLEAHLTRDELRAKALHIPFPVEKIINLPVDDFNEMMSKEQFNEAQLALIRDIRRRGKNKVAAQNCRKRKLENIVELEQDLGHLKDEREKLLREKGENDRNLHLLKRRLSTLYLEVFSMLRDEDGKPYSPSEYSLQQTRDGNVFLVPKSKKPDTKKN
Type: cell-based
In the case of `CC(C)=CCc1c(O)ccc(C(=O)/C=C/c2ccc(O)cc2O)c1O`, the fold change (FC) is reported as 1.34.
Work on `O=C1c2c(O)cc(O)cc2OC(c2ccc(O)cc2)C1O` (stereo unspecified) yielded a fold change (FC) of 1.49.
`C/C(=C\Cc1c(O)ccc(C(=O)/C=C/c2ccc(O)cc2)c1O)CO` was tested, and the fold change (FC) was 1.43.
Compound `CC(C)=CCc1c(-c2ccc(O)cc2O)oc2cc(O)cc(O)c2c1=O` has a fold change (FC) of 1.31.
In the case of `O=C1CC(c2ccc(O)c(O)c2)Oc2cc(O[C@@H]3O[C@H](CO)[C@@H](O)[C@H](O)[C@H]3O)cc(O)c21` (stereo partly specified), the fold change (FC) is reported as 1.66.
With `CC(C)=CCc1c(O)ccc2c1OC(c1ccc(O)cc1O)CC2=O` (stereo unspecified) the fold change (FC) was 1.75.
Compound `C/C(=C/Cc1c(O)ccc(C(=O)/C=C/c2ccc(O)cc2)c1O)CO` has a fold change (FC) of 1.52.
`CC(C)=CCc1c(O)cc2oc3c(c(=O)c2c1O)C(C=C(C)C)Oc1cc(O)ccc1-3` (stereo unspecified) gave a fold change (FC) of 1.31.
With `COc1ccc([C@@H]2CC(=O)c3c(cc(OC)c(OC)c3OC)O2)cc1OC` the fold change (FC) was 1.81.
With `C/C(=C\Cc1c(O)ccc(C(=O)/C=C/c2ccc(O)cc2O)c1O)CO` the fold change (FC) was 1.61.

What follows are compounds tested against T2, Nuclear factor erythroid 2-related factor 2 (Homo sapiens) (UniProt Q16236) (assay: Activation of Nrf2 in human BEAS2B cells assessed as upregulation of NQO1 protein expression at 20 uM after 12 hrs by immunoblot analysis).
T2 sequence (whole entry): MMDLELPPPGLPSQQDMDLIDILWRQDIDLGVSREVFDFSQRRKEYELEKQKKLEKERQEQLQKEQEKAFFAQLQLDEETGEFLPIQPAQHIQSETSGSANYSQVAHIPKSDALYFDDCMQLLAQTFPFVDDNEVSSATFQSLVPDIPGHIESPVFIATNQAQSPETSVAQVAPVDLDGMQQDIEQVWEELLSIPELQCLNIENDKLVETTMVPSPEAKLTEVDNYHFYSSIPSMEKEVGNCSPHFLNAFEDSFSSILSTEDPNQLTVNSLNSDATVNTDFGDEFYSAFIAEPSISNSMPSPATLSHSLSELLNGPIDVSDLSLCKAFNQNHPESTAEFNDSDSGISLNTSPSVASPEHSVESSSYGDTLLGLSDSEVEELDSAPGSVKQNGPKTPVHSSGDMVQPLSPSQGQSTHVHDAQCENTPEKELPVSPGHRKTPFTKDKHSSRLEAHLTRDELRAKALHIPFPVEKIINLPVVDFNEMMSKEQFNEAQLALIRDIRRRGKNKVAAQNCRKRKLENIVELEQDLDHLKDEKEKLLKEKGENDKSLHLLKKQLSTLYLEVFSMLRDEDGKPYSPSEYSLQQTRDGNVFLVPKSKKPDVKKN
Type: cell-based
In the case of `CC(C)(C)c1cc(O)ccc1O`, the Activity is reported as “Active”.

These compounds were tested against T2, Nuclear factor erythroid 2-related factor 2 (Homo sapiens) (assay: Activation of Nrf2 in human BEAS2B cells assessed as upregulation of Nrf2 protein expression at 20 uM after 12 hrs by immunoblot analysis).
Type: cell-based
With `CC(C)(C)c1cc(O)ccc1O` the Activity was “Active”.

Each compound was assayed against T1, Nuclear factor erythroid 2-related factor 2 (Mus musculus) (assay: Activation of Nrf2 in mouse Heap1c1c7 cells assessed as induction of NAD(P)H:quinone reductase activity at 25 uM relative to control).
Type: cell-based
With `COc1cc(/C=C/C(=O)C/C(C)=C/Cc2c(O)ccc(C(=O)/C=C/c3ccc(O)cc3)c2O)ccc1O` the fold change (FC) was 1.49.
Compound `C/C(=C\Cc1c(O)ccc(C(=O)/C=C/c2ccc(O)cc2)c1O)CC(=O)/C=C/c1ccc(O)cc1` has a fold change (FC) of 1.57.
`C/C(=C/Cc1c(O)ccc(C(=O)/C=C/c2ccc(O)cc2O)c1O)CC(=O)/C=C/c1ccc(O)cc1` showed a fold change (FC) of 1.39.
Work on `CC(C)/C=C/c1c(O)cc2oc(-c3ccc(O)cc3O)c(/C=C/C(C)C)c(=O)c2c1O` yielded a fold change (FC) of 1.4.

What follows are compounds tested against T1, Nuclear factor erythroid 2-related factor 2 (Mus musculus) (assay: Activation of Nrf2 in mouse Heap1c1c7 cells assessed as induction of NAD(P)H:quinone reductase activity at 50 uM relative to control).
Type: cell-based
`COc1cc([C@@H]2CC(=O)c3c(O)cc(O)cc3O2)ccc1O` showed a fold change (FC) of 1.51.
`CC(C)=CCc1c(O)cc2oc(-c3ccc(O)cc3O)c(/C=C/C(C)C)c(=O)c2c1O` was tested, and the fold change (FC) was 1.86.
Work on `O=C1C[C@@H](c2ccc(O)c(O)c2)Oc2cc(O)cc(O)c21` yielded a fold change (FC) of 1.36.
For `CC(C)=CCc1c(O)ccc(C(=O)/C=C/c2ccc(O)cc2)c1O`, the fold change (FC) was 1.69.
With `O=c1cc(-c2ccc(O)c(-c3c(O)cc(O)c4c(=O)cc(-c5ccc(O)cc5)oc34)c2)oc2cc(O)cc(O)c12` the fold change (FC) was 1.42.
With `O=c1c(O)c(-c2ccc(O)cc2)oc2cc(O)cc(O)c12` the fold change (FC) was 1.51.

What follows are compounds tested against T1, Nuclear factor erythroid 2-related factor 2 (Mus musculus) (assay: Activation of Nrf2 in mouse Heap1c1c7 cells assessed as induction of NAD(P)H:quinone reductase activity at 12.5 uM relative to control).
Type: cell-based
For `O=c1c(O)c(-c2ccc(O)c(O)c2)oc2cc(O)cc(O)c12`, the fold change (FC) was 1.36.
`C/C(=C/Cc1c(O)ccc(C(=O)/C=C/c2ccc(O)cc2)c1O)CC(=O)/C=C/c1ccc(O)cc1` showed a fold change (FC) of 1.31.
With `COc1cc(/C=C/C(=O)C/C(C)=C\Cc2c(O)ccc(C(=O)/C=C/c3ccc(O)cc3)c2O)ccc1O` the fold change (FC) was 1.46.

The compounds below were run against T2, Nuclear factor erythroid 2-related factor 2 (Homo sapiens) (assay: Activation of Nrf2 in human BEAS2B cells assessed as upregulation of gamma-GCS protein expression at 20 uM after 12 hrs by immunoblot analysis).
Type: cell-based
With `CC(C)(C)c1cc(O)ccc1O` the Activity was “Active”.
